Data published in paper PMC9953335 (2022).

How the values were obtained:
[1] = tested on: hTelo (unlabelled) (DNA, G4) GGGTTAGGGTTAGGGTTAGGG; test: CD titration; conditions: K+ (50 mM KCl); 10 mM Tris-HCl, pH 7.4, 25 °C; 1-10 equiv compound
[2] = tested on: cKIT1 (unlabelled) (DNA, G4) GGGAGGGCGCTGGGAGGAGGG; test: CD titration; conditions: K+ (50 mM KCl); 10 mM Tris-HCl, pH 7.4, 25 °C; 1-10 equiv compound

Row | SMILES | binding [1] | binding [2]
1 | CN1[C]N(CCCN2[C]N(C)c3c2c(=O)n(C)c(=O)n3C)c2c1n(C)c(=O)n(C)c2=O.CN1[C]N(CCCN2[C]N(C)c3c2c(=O)n(C)c(=O)n3C)c2c1n(C)c(=O)n(C)c2=O.[Au+].[Au+] | yes | yes
2 | CN1[C]N(CCCN2[C]N(C)c3ccccc32)c2ccccc21.CN1[C]N(CCCN2[C]N(C)c3ccccc32)c2ccccc21.[Au+].[Au+] | yes | yes
